# ChEMBL document CHEMBL5584202, “Identification of benzothiazoles as novel PCSK9 inhibitors” (Bioorg Med Chem Lett, 2024)
# Calls of active or inactive are those of the source. No cut-off for these calls is given here.
# What was measured:
# HepG2 [1] = experiment: Downregulation of PCSK9 protein level in human HepG2 cells by Western blotting analysis; format: functional, cell-based
# HepG2 [2] = experiment: Downregulation of LDLR protein level in human HepG2 cells by Western blotting analysis; format: functional, cell-based
structure (smiles),measurement,setting,value
CC(C)(C)OC(=O)N1CCN(Cc2ccc3nc(NC(=O)c4ccc(S(=O)(=O)NCCC#N)cc4)sc3c2)CC1,Activity,HepG2 [1],Active
same,Activity,HepG2 [2],Active
